Laboratory results published in publication PMC11435058, “Synthesis of New Thiazole-Privileged Chalcones as Tubulin Polymerization Inhibitors with Potential Anticancer Activities” (Pharmaceuticals, 2024).

What was measured:
Conditions in all cases: Homo sapiens
MALME-3M = assay: NCI-60 anticancer screen (SRB; single dose and five doses)
M14 = assay: as above
SK-MEL-5 = assay: as above
NCI/ADR-RES = assay: as above
A498 = assay: as above
ACHN = assay: as above
RXF 393 = assay: as above
SN12C = assay: as above
PC-3 = assay: as above
DU-145 = assay: as above
MCF7 = assay: as above
MDA-MB-231/ATCC = assay: as above
HS 578T = assay: as above
BT-549 = assay: as above
CCRF-CEM = assay: NCI-60 anticancer screen (SRB; single dose 10 μM and five doses)
[1] = 48 h, read-out: Growth Percentage

## Cc1[nH]c(=S)sc1C(=O)/C=C/c1ccc([N+](=O)[O-])cc1 [2i, (E)-1-(4-Methyl-2-Thioxo-2,3-Dihydrothiazol-5-yl)-3-(4-Nitrophenyl)Prop-2-En-1-One]
MALME-3M
  GI50: 13.7 µM
MALME-3M; [1]
  activity at 10 µM: 75.2%
MALME-3M; read-out: LC50
  CC50: 70.8 µM
MALME-3M; read-out: TGI
  IC (TGI): 31.1 µM
M14; M14
  GI50: 12.2 µM
M14; M14, 48 h, read-out: Growth Percentage
  activity at 10 µM: 69.5%
M14; M14, read-out: TGI
  IC (TGI): 28.4 µM
SK-MEL-5; SK-MEL-5
  GI50: 12 µM
SK-MEL-5; SK-MEL-5, 48 h, read-out: Growth Percentage
  activity at 10 µM: 53.8%
SK-MEL-5; SK-MEL-5, read-out: LC50
  CC50: 49.7 µM
SK-MEL-5; SK-MEL-5, read-out: TGI
  IC (TGI): 24.4 µM
NCI/ADR-RES
  GI50: 14.9 µM
NCI/ADR-RES; [1]
  activity at 10 µM: -4.45%
NCI/ADR-RES; read-out: LC50
  CC50: 82.8 µM
NCI/ADR-RES; read-out: TGI
  IC (TGI): 35.2 µM
A498; A498
  GI50: 15.5 µM
A498; A498, 48 h, read-out: Growth Percentage, A498, dose of 10 μM
  activity at 10 µM: 105%
A498; A498, read-out: LC50
  CC50: 55.3 µM
A498; A498, read-out: TGI
  IC (TGI): 29.3 µM
ACHN
  GI50: 11.3 µM
ACHN; [1]
  activity at 10 µM: 3.88%
ACHN; read-out: LC50
  CC50: 48.4 µM
ACHN; read-out: TGI
  IC (TGI): 23.3 µM
RXF 393; RXF 393
  GI50: 4.88 µM
RXF 393; RXF 393, 48 h, read-out: Growth Percentage
  activity at 10 µM: -4.35%
RXF 393; RXF 393, read-out: LC50
  CC50: 44.8 µM
RXF 393; RXF 393, read-out: TGI
  IC (TGI): 18.6 µM
SN12C
  GI50: 6.06 µM
SN12C; [1]
  activity at 10 µM: 18.6%
SN12C; read-out: LC50
  CC50: 44.7 µM
SN12C; read-out: TGI
  IC (TGI): 19.3 µM
PC-3; PC-3
  GI50: 10.3 µM
PC-3; PC-3, 48 h, read-out: Growth Percentage
  activity at 10 µM: 51.3%
PC-3; PC-3, read-out: LC50
  CC50: > 100 µM
PC-3; PC-3, read-out: TGI
  IC (TGI): 37.3 µM
DU-145; DU-145
  GI50: 3.41 µM
DU-145; DU-145, 48 h, read-out: Growth Percentage
  activity at 10 µM: 21.4%
DU-145; DU-145, read-out: LC50
  CC50: 34.5 µM
DU-145; DU-145, read-out: TGI
  IC (TGI): 11 µM
MCF7; MCF7
  GI50: 2.67 µM
MCF7; MCF7, 48 h, read-out: Growth Percentage
  activity at 10 µM: 5.51%
MCF7; MCF7, read-out: LC50
  CC50: 51.3 µM
MCF7; MCF7, read-out: TGI
  IC (TGI): 11.7 µM
MDA-MB-231/ATCC; MDA-MB-231
  GI50: 12 µM
MDA-MB-231/ATCC; MDA-MB-231, 48 h, read-out: Growth Percentage
  activity at 10 µM: 10.8%
MDA-MB-231/ATCC; MDA-MB-231, read-out: LC50
  CC50: 51.5 µM
MDA-MB-231/ATCC; MDA-MB-231, read-out: TGI
  IC (TGI): 24.8 µM
HS 578T
  GI50: 13 µM
HS 578T; [1]
  activity at 10 µM: 68.1%
HS 578T; read-out: LC50
  CC50: 80.9 µM
HS 578T; read-out: TGI
  IC (TGI): 32.4 µM
BT-549; BT-549
  GI50: 5.04 µM
BT-549; BT-549, 48 h, read-out: Growth Percentage
  activity at 10 µM: 20.1%
BT-549; BT-549, read-out: TGI
  IC (TGI): 19.3 µM
CCRF-CEM
  GI50: 4.56 µM
CCRF-CEM; [1]
  activity at 10 µM: -7.25%
CCRF-CEM; read-out: TGI
  IC (TGI): > 100 µM
